From US20230172899A1, “CANNABINOID COMPOSITIONS” (priority 2020, published 2023)
Values after ≈ are worked out from the molar mass of the structure shown. Like-named read-outs stand apart in the source and are kept apart here.

Assays:
[1] = test system: store-operated calcium entry (SOCE) in THP-1 cells; experiment: SOCE inhibition, combinatory (isobolographic) analysis, THP-1 cells; format: cell-based, human; settings: 10 μM cannabinoid plus 2.2 μM CBGA
[2] = test system: store-operated calcium entry (SOCE) in HEK293 cells; experiment: SOCE inhibition, Fura-2 Ca2+ bioassay, thapsigargin-induced, HEK293 cells; format: cell-based, human; settings: for IC50: Homo sapiens
[3] = test system: store-operated calcium entry (SOCE) in Jurkat T cells; experiment: SOCE inhibition, Fura-2 Ca2+ bioassay, thapsigargin-induced, Jurkat cells; format: cell-based, human; settings: for IC50: Homo sapiens, Jurkat; for Combinatory effect on SOCE inhibition when paired with CBGA: isobolographic analysis, pairs expected to inhibit 50%; for IC50 on SOCE relative to acidic variations: dose response 0 to 30 μM
[4] = test system: store-operated calcium entry (SOCE) in Luva human mast cells; experiment: SOCE inhibition, Fura-2 Ca2+ bioassay, thapsigargin-induced, Luva cells; format: cell-based; settings: Homo sapiens, Mast cell, read-out: IC50 SOCE Luva
[5] = test system: store-operated calcium entry (SOCE) in U937 monocytes; experiment: SOCE inhibition, Fura-2 Ca2+ bioassay, thapsigargin-induced, U937 cells; format: cell-based, human; settings: Homo sapiens
[6] = test system: store-operated calcium entry (SOCE) in THP-1 cells; experiment: SOCE inhibition, combinatory (isobolographic) analysis, THP-1 cells; format: cell-based, human; settings: Homo sapiens, THP-1, read-out: SOCE IC50
Protocol: Bar graphs shown in FIGS. 10A-10Z and 10BB display SOCE amplitudes calculated from area under the curve (AUC) of the SOCE signals and normalized to SOCE in the presence of gadolinium. Combinatory effects were assessed using an isobolographic analysis approach, where CBGA was paired with another cannabinoid using concentrations of CBGA corresponding to 50%, 40%, 30%, 20%, 10%, and 0% inhibition (as derived from the IC50 curves of FIGS. 9A-9P) and combined with concentrations of the paired cannabinoid, so that each combination would be expected to inhibit 50% of the Ca^2+ signal (e.g., the CBGA concentration causing 50% inhibition was tested alone without the other cannabinoid, the CBGA concentration expected to block 40% of the signal was combined with the concentration of the other cannabinoid expected to inhibit 10%, the CBGA concentration expected to block 30% of the signal was combined with the concentration of the other cannabinoid expected to inhibit 20%, and so on). Simple additivity of cannabinoid pairs would be expected to inhibit the Ca^2+ signal by 50%. All the data in these experiments represent an average of 3 independent runs and the values are graphed as mean values±SEM.

[7] = test system: store-operated calcium entry (SOCE) in RBL-2H3 rat mast cells; experiment: SOCE inhibition, Fura-2 Ca2+ bioassay, thapsigargin-induced, RBL-2H3 cells; format: cell-based; settings: Rattus norvegicus
TRPM7 [8] = molecular target: T1, TRPM7 (Homo sapiens, UniProt Q96QT4); experiment: Whole-cell patch clamp of TRPM7 outward current in Jurkat cells; format: cell-based; set-up: endogenous in cells; host or cells: Jurkat; settings: 10 μM, +40 mV, removal of intracellular ATP
Protocol: (§1) Inward CRAC currents were induced at −120 mV (gray trace) and outward currents at +40 mV (black trace, where CRAC currents reverse and are essentially absent). At the +40 mV voltage potential, TRPM7 channels produce monovalent outward currents. Perfusion of 50 μM IP3 activates ICRAC at −120 mV as above and the removal of intracellular ATP slowly activates TRPM7 current at +40 mV. Application of 10 μM CBGA blocks both outward TRPM7 and inward CRAC currents (see FIG. 13, black and gray traces, respectively). Without being bound by theory, CBGA may also block TRPM7's kinase activity, similar to other TRPM7 blockers such as NS8593.
Target sequence in this assay (Q96QT4 whole entry, the tested form may be a part): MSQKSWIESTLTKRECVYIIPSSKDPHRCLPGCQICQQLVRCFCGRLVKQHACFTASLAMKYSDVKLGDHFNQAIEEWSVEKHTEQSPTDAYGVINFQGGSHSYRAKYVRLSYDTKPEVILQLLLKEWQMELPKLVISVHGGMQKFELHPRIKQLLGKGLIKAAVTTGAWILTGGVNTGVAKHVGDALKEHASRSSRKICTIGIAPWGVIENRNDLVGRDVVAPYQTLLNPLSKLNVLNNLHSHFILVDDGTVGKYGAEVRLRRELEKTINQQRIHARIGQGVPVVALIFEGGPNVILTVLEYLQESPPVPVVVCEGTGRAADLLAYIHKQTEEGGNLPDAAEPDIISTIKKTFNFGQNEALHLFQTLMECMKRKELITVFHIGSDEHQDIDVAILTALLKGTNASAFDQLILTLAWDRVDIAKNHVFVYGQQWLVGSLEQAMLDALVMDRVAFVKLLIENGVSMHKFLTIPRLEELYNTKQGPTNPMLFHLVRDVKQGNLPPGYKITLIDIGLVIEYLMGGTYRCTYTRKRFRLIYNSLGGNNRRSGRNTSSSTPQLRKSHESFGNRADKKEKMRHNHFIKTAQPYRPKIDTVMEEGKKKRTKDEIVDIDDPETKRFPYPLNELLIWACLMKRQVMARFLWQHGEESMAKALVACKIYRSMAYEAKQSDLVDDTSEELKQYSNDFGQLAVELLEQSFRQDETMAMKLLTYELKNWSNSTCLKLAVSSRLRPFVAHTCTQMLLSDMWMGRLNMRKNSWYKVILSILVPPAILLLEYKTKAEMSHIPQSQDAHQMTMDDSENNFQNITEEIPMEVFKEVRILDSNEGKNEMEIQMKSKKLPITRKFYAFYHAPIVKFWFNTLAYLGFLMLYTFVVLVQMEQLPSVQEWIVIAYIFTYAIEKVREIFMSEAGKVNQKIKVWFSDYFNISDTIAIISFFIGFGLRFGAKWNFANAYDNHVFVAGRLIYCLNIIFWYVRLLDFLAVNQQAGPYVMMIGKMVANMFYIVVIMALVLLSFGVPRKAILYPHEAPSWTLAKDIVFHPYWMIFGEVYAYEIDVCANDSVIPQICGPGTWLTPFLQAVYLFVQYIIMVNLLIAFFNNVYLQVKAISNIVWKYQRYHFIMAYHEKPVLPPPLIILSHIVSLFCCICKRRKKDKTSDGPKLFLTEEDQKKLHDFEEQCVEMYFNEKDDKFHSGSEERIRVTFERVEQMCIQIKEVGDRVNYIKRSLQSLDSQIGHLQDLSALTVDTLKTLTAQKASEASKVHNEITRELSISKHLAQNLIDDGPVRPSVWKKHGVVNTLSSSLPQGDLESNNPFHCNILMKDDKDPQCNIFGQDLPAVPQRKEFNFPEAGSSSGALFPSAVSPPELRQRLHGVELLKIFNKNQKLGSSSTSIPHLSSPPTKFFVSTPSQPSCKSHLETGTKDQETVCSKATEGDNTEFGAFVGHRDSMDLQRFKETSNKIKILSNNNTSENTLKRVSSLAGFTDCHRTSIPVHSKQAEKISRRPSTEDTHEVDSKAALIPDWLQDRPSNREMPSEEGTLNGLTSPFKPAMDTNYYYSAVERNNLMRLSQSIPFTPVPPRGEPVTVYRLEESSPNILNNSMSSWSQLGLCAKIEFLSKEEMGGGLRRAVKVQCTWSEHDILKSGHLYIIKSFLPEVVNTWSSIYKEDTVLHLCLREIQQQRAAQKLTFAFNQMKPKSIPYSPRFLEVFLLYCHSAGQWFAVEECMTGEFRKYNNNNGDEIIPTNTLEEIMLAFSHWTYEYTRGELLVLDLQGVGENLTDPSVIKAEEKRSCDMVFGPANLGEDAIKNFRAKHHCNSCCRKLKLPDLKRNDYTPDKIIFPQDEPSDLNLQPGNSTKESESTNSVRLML

CRAC channels (ICRAC) = experiment: Whole-cell patch clamp of IP3-induced ICRAC in Jurkat cells; format: cell-based, human; settings: 10 μM, 50 μM IP3, −120 mV
Protocol: The ability of CBGA to inhibit store-operated calcium entry (SOCE) within cells was experimentally interrogated (see FIG. 12). Jurkat cells were perfused with 50 μM IP3 to induce store depletion and activation of CRAC channels (the resulting Ca^2+ inward current is known as ICRAC). ICRAC is a long-lasting inward current at −120 mV membrane potential (black trace) that can be blocked by 10 μM CBGA (gray trace).
as §1

TRPM7 [9] = molecular target: T1, TRPM7; experiment: Whole-cell patch clamp of TRPM7 over-expressed in HEK293 cells; format: cell-based; set-up: expressed in transfected cells; host or cells: HEK293; settings: HEK293 over-expressing TRPM7; 1, 3, 10 or 30 μM; +40 mV; 0 ATP, 0 Mg2+
Protocol: Activation of TRPM7 over-expressed in HEK293 cells by perfusing the cells with intracellular solution containing 0 ATP and 0 Mg^2+, resulting in fast and maximal activation of TRPM7 outward currents at +40 mV is shown in FIG. 14.
Data from dose-response curves for the inhibition of TRPM7 currents (dark gray symbols) obtained in experiments shown in FIG. 14 and SOCE-mediated increases in intracellular Ca^2+ (light gray symbols) are shown in FIG. 15.
Target sequence in this assay (Q96QT4 whole entry, species assumed, the tested form may be a part): as the sequence (Q96QT4 whole entry, the tested form may be a part) above

[10] = test system: store-operated calcium entry (SOCE) in various cell types; experiment: Thapsigargin-induced SOCE Fura-2 bioassay across various cell types; format: cell-based; settings: 1 μM; positive control; Jurkat, U937, Luva, RBL-2H3, HL-60, HEK-293
Protocol: A Fura-2 calcium flux assay was used to determine cytoplasmic Ca^2+ levels. Briefly, cells were preloaded with Fura-2 AM, and fluorescence intensity in cells intensity was measured over time as a ratio of detected 510 nm fluorescent light emission intensity when excited by UV light at 340 nm and 380 nm wavelengths (f340/f380 ratio). Gadolinium (Gd^3+) is known to block SOCE at a concentration of 1 μM and was used at 1 μM as a positive control in these experiments (gray line).
FIGS. 11TT-11-XX show dose-response curves for hemp varieties on store-operated calcium entry (SOCE) induced by thapsigargin in HEK-293, Jurkat, U937, LUVA, and RBL-2H3 cells. Hemp extracts (cold extracted and unheated) were tested at 6 different doses from 1 to 50 μg/ml. The effects on SOCE amplitude were plotted in a dose-dependent manner to determine the IC50 for each tested compound (see Table 6 for determined IC50 values). All data are averages of three independent runs±SEM. Tested hemp varieties were: Otto-18, Harlequin (HAR), and BOAX.
The general extraction method of Example 6 was carried out, and hemp extracts were subjected to heat treatment prior to testing for activity in the SOCE assay. In some instances, unheated and heated hemp extracts were combined prior to activity testing in the SOCE assay.

[11] = HEK293, read-out: IC50 SOCE HEK-293, Table 5, individual cannabinoids, HEK-293
[12] = read-out: IC50 SOCE Jurkat, Table 5, individual cannabinoids
[13] = U-937, read-out: IC50 SOCE U937, Table 5, individual cannabinoids, U937
[14] = RBL-2H3, read-out: IC50 SOCE RBL-2H3, Table 5, individual cannabinoids, RBL-2H3
[15] = U-937, read-out: IC50 SOCE U937

Q: How did the “Combinatory effect when paired with 2.2 μM CBGA” value (shortened to “Combinatory effect when paired”) [1] turn out when CCCCCc1cc(O)c2c(c1)OC(C)(C)c1ccc(C)cc1-2 [CBN, 6,6,9-trimethyl-3-pentyl-6H-benzo[c]chromen-1-ol] was run?
A: simple additive agonists

Q: What about the IC50 [2, 11] of the same compound?
A: 42.6 µg/mL (≈ 137 µM)

Q: And the IC50 [3, 12]?
A: 9.09 µg/mL

Q: And the “Combinatory effect on SOCE inhibition when paired with CBGA” value (“Combinatory effect on SOCE inhibition” below) ([3]; Jurkat cells)?
A: Simple additive behavior

Q: What about the IC50 [4] of the same compound?
A: > 50 µg/mL

Q: What about the IC50 [5, 13] of the same compound?
A: 45.3 µg/mL (≈ 146 µM)

Q: What about the IC50 [6] of the same compound?
A: > 30 µM

Q: And the IC50 [7, 14]?
A: 33.4 µg/mL (≈ 108 µM)

Q: Which “Combinatory effect when paired” value [1] does the source give for CCCCCc1cc(O)c(C/C=C(\C)CCC=C(C)C)c(O)c1 [CBG, (E)-2-(3,7-dimethylocta-2,6-dien-1-yl)-5-pentylbenzene-1,3-diol] here?
A: simple additive agonists

Q: What about the IC50 [2, 11] of the same compound?
A: > 50 µg/mL

Q: What about the IC50 [3, 12] of the same compound?
A: 2.36 µg/mL

Q: What about the “IC50 on SOCE relative to acidic variations” value ([3]; Jurkat cells) of the same compound?
A: higher IC50 than their acidic variations

Q: And the “Combinatory effect on SOCE inhibition” value ([3]; Jurkat cells)?
A: stronger than predicted inhibitions

Q: What about the IC50 [4] of the same compound?
A: 33.6 µg/mL (≈ 106 µM)

Q: And the IC50 [5, 13]?
A: 33.5 µg/mL (≈ 106 µM)

Q: And the IC50 [6]?
A: > 30 µM

Q: What about the IC50 [7, 14] of the same compound?
A: 3.29 µg/mL (≈ 10.4 µM)

Q: CCCCCc1cc(O)c(C/C=C(\C)CCC=C(C)C)c(O)c1C(=O)O [CBGA, (E)-3-(3,7-dimethylocta-2,6-dien-1-yl)-2,4-dihydroxy-6-pentylbenzoic acid] was tested. Which IC50 [2, 11] did it give?
A: 5.72 µg/mL (≈ 15.9 µM)

Q: What about the “Inhibitory effect in immune cells compared with non-immune HEK293 cells” value ([2]; Jurkat vs HEK293 screening, 10 μM) of the same compound?
A: more potent

Q: What about the “Block of outward TRPM7 current” value (TRPM7 [8]) of the same compound?
A: blocks

Q: What about the IC50 [3, 12] of the same compound?
A: 0.53 µg/mL

Q: And the IC50 ([3]; read-out: IC50 inhibition of SOCE-mediated increases in intracellular Ca2+, FIG. 15, cell type not stated there)?
A: ~2 µM

Q: What about the “Block of inward CRAC current (ICRAC)” value (CRAC channels (ICRAC)) of the same compound?
A: completely blocks

Q: And the “Block of TRPM7 current” value (TRPM7 [9])?
A: dose-dependent block

Q: What about the IC50 [4] of the same compound?
A: 2.21 µg/mL (≈ 6.13 µM)

Q: And the IC50 [5, 13]?
A: 2.23 µg/mL (≈ 6.19 µM)

Q: What about the IC50 [6] of the same compound?
A: ~2.2 µM

Q: What about the IC50 [7, 14] of the same compound?
A: 0.27 µg/mL (≈ 0.749 µM)

Q: For C=C(C)[C@@H]1CCC(C)=C[C@H]1c1c(O)cc(CCCCC)cc1O [CBD, (1′R,2′R)-5′-methyl-4-pentyl-2′-(prop-1-en-2-yl)-1′,2′,3′,4′-tetrahydro-[1,1′-biphenyl]-2,6-diol], which “Combinatory effect when paired” value [1] is on record?
A: sub-additive

Q: And the IC50 [2, 11]?
A: > 50 µg/mL

Q: What about the IC50 ([3]; read-out: IC50 SOCE Jurkat) of the same compound?
A: 7.42 µg/mL

Q: And the “Effect on SOCE (Ca2+ signals), pure compounds” value ([3]; Jurkat cells, compounds at 10 μM, 1 μM thapsigargin)?
A: low to no effects

Q: What about the “IC50 on SOCE relative to acidic variations” value ([3]; Jurkat cells) of the same compound?
A: higher IC50 than their acidic variations

Q: What about the “Combinatory effect on SOCE inhibition” value ([3]; Jurkat cells) of the same compound?
A: Simple additive behavior

Q: What about the IC50 [4] of the same compound?
A: > 50 µg/mL

Q: What about the IC50 [5, 15] of the same compound?
A: > 50 µg/mL

Q: And the IC50 [6]?
A: > 30 µM

Q: What about the IC50 [7, 14] of the same compound?
A: 2.53 µg/mL (≈ 8.05 µM)

Q: [Cl][Gd]([Cl])[Cl] [Gd^3+, Gadolinium Chloride] was tested. Which “Effect on thapsigargin-induced SOCE (f340/f380 ratio)” value [10] did it give?
A: inhibited SOCE

Q: How did the “Combinatory effect when paired” value [1] turn out when CCCc1cc(O)c(C/C=C(\C)CCC=C(C)C)c(O)c1 [CBGV, (E)-2-(3,7-dimethylocta-2,6-dien-1-yl)-5-propylbenzene-1,3-diol] was run?
A: simple additive agonists

Q: And the IC50 ([2]; HEK293, read-out: IC50 SOCE HEK-293)?
A: 30.9 µg/mL (≈ 107 µM)

Q: And the IC50 ([3]; read-out: IC50 SOCE Jurkat)?
A: 5.27 µg/mL

Q: What about the “Combinatory effect on SOCE inhibition” value ([3]; Jurkat cells) of the same compound?
A: stronger than predicted inhibitions

Q: And the IC50 [4]?
A: 40.7 µg/mL (≈ 141 µM)

Q: What about the IC50 [5, 15] of the same compound?
A: 14.5 µg/mL (≈ 50.3 µM)

Q: And the IC50 [6]?
A: > 30 µM

Q: And the IC50 ([7]; RBL-2H3, read-out: IC50 SOCE RBL-2H3)?
A: 6.46 µg/mL (≈ 22.4 µM)
